The target in the test is T1, LFA-1 (CD18/CD11a) binding to ICAM-1 (Homo sapiens, UniProt P05107+P20701).
T1 construct: followed by purified LFA-1 (in buffer of 50 mM triethylamine, 150 mM NaCl, 1% beta octylglucoside)
T1 sequence (P20701 26-1170): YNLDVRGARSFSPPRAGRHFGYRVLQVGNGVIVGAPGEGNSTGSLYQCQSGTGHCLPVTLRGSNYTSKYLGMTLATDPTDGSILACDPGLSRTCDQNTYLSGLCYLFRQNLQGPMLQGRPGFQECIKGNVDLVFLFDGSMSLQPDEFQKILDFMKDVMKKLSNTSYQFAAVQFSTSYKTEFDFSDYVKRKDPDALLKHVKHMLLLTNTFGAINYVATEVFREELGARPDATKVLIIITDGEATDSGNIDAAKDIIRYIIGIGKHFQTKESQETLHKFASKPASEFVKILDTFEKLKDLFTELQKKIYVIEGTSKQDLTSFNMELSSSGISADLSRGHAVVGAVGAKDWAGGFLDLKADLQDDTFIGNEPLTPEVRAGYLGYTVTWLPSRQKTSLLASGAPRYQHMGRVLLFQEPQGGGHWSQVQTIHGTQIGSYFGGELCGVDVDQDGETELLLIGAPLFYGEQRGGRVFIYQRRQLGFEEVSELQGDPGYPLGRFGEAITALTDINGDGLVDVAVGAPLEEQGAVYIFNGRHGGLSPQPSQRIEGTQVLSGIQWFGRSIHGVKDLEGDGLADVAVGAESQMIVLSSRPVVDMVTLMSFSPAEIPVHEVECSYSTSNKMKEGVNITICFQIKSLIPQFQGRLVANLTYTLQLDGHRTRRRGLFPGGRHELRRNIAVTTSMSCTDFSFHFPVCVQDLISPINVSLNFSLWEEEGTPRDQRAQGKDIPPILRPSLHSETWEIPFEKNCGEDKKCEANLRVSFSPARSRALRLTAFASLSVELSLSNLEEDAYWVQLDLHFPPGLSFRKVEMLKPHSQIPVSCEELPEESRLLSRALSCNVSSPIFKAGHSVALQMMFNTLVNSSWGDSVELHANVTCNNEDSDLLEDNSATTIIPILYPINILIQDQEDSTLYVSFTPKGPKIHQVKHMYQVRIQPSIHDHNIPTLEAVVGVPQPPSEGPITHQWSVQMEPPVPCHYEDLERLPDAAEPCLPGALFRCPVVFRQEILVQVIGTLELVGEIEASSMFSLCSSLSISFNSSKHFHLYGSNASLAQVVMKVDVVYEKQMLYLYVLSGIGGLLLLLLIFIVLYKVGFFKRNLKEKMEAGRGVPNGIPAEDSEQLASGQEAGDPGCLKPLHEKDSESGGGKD
T1 sequence (P05107 23-769 partner): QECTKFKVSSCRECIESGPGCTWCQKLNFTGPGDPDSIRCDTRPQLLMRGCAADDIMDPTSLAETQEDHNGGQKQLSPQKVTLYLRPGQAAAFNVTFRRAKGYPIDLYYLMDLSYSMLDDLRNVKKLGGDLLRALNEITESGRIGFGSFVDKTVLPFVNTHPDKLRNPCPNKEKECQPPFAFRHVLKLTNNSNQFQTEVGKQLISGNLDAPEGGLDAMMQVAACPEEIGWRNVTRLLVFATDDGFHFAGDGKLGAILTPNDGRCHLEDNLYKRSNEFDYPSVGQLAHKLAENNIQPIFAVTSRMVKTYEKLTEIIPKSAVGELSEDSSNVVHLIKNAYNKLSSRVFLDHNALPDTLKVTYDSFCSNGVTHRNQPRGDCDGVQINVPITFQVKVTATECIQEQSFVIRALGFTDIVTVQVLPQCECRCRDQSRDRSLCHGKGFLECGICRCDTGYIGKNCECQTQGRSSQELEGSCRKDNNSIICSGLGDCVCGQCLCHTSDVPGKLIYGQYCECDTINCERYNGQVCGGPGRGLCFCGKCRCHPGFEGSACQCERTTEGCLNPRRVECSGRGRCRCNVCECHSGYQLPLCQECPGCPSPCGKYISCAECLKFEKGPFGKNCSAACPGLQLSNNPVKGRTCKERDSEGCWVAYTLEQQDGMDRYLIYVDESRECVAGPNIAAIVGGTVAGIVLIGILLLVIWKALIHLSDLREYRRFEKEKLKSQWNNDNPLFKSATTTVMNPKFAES
Briefly: LFA-1/Biotin-sICAM-1 AlphaScreen assay: inhibition of LFA-1 binding to ICAM-1. Particulars: 37° C. 90 minutes, highest compound concentration 1 μM. From the text: Assay to Determine Inhibition of LFA-1 Binding to ICAM-1
This assay protocol is designed to study the direct antagonism, by a test compound, of the interaction of ICAM-1 with the Leukointegrin CD18/CD11a (LFA-1).
The LFA-1/Biotin-sICAM-1 molecular assay measures the ability of test compounds to inhibit binding of LFA-1 to Biotinylated-sICAM using AlphaScreen technology (Ref: Wilson, J, Rossi, C P, Carboni, S, Fremaux, C, Perrin, D, Soto, C, Kosco-Vilbois, M, and Scheer, A: A Homogeneous 384-Well High-Throughput Binding Assay for a TNF Receptor Using Alphascreen Technology. J Biomol Screen 2003; 8:522-532) that uses TS2/4(anti-LFA-1)-custom conjugated AlphaLisa acceptor beads and streptavidin-coated donor beads from PerkinElmer. The assay was performed in white OptiPlates-384 in a volume of 60 μL using assay buffer (Dulbecco's PBS containing calcium and magnesium, 2 mM MgCl2, 0.1 mM PMSF, 0.1% BSA, pH 7.1). To each well, Biotin-sICAM was added followed by purified LFA-1 (in buffer of 50 mM triethylamine, 150 mM NaCl, 1% beta octylglucoside, 2 mM MgCl2 neutralized to pH with 1M Tris-HCl, pH 7.5). For compound testing, compound was added in 5 uL to the above in 25 uL. LFA-1 and Biotin-sICAM-1 were used at concentrations that would yield a signal to background ratio of 8-10. The highest concentration of compound was 1 μM in 1% DMSO. Positive controls were wells without compound containing LFA-1, while blanks were wells without both compound and LFA-1. Plates were mixed and incubated at 37° C. for 90 minutes. This was followed by addition of 15 μL/well TS2/4-conjugated acceptor beads diluted in PBS containing 0.1% BSA for a final concentration of 10 μg/mL. The plates were mixed and incubated in the dark for 30 minutes at room temperature followed by addition of 15 μL/well streptavidin-coated donor beads diluted in PBS containing 0.1% BSA at a final concentration of 15 μg/mL. The plates were mixed and incubated in the dark for 60 minutes at room temperature and then read on an EnVision Multilabel Reader using AlphaScreen 384-well OptiPlate protocol.
On to `Cn1cc(-c2ccc(C3(NC(=O)C4(NC(=O)c5cnc6n5[C@](C)(Cc5ccc(C#N)cc5)C(=O)N6c5cc(Cl)c(F)c(Cl)c5)CC4)CC3)nn2)c(C2CC2)n1` [Compound 15], for which the IC50 came to 1.6 nM.
Next, `C[C@@]1(Cc2ccc(C#N)cc2)C(=O)N(c2cc(Cl)cc(Cl)c2)c2ncc(C(=O)NC3(C(=O)NC4(c5ccc(-c6ccc(C(N)=O)cc6)cn5)CC4)CC3)n21` [Compound 131]: 0.99 nM.
On to `C[C@@H](NC(=O)C1(NC(=O)c2cnc3n2[C@](C)(Cc2ccc(C#N)cc2)C(=O)N3c2cc(Cl)c(F)c(Cl)c2)CC1)c1ccc(-c2ccc(CO)nc2)cn1` [Compound 65], for which the IC50 was 0.53 nM.
Next, `C[C@@]1(Cc2ccc(C#N)cc2)C(=O)N(c2cc(Cl)c(F)c(Cl)c2)c2ncc(C(=O)NC3(C(=O)NC4(c5ccc(-c6ccc7nccn7c6)cn5)CC4)CC3)n21` [Compound 16]: 1 nM.
`Cn1cc(-c2ccc(C3(NC(=O)C4(NC(=O)c5cnc6n5[C@](C)(Cc5ccc(Br)cc5)C(=O)N6c5cc(Cl)cc(Cl)c5)CC4)CC3)nc2)cn1` [Compound 75] registered an IC50 of 1.2 nM.
Compound `Cn1ncc(-c2ccc(C3(NC(=O)C4(NC(=O)c5cnc6n5[C@](C)(Cc5ccc(C#N)cc5)C(=O)N6c5cc(Cl)c(F)c(Cl)c5)CC4)CC3)nc2)c1C1CC1` [Compound 13] came in with an IC50 of 1.8 nM.
On to `C[C@@H](NC(=O)[C@@H](NC(=O)c1cnc2n1[C@](C)(Cc1ccc(C#N)cc1)C(=O)N2c1cc(Cl)c(F)c(Cl)c1)[C@@H](C)O)c1ccc(-c2ccc(CO)nc2)cn1` [Compound 119], for which the IC50 is 0.85 nM.
In the case of `Cc1nn(C)cc1-c1ccc(C2(NC(=O)[C@H](CO)NC(=O)c3cnc4n3[C@](C)(Cc3ccc(C#N)cc3)C(=O)N4c3cc(Cl)c(F)c(Cl)c3)CC2)nc1` [Compound 154], the IC50 amounted to 0.76 nM.
Next, `C[C@@]1(Cc2ccc(C#N)cc2)C(=O)N(c2cc(Cl)cc(Cl)c2)c2ncc(C(=O)NC3(C(=O)NC4(c5ccc(-c6cccc(S(C)(=O)=O)c6)cn5)CC4)CC3)n21` [Compound 141]: 0.53 nM.
Next, `C[C@@]1(Cc2ccc(OC(F)(F)F)cc2)C(=O)N(c2cc(Cl)c(F)c(Cl)c2)c2ncc(C(=O)NC3(C(=O)NC4(c5ccc(-c6cn[nH]c6)nn5)CC4)CC3)n21` [Compound 42]: 1.3 nM; `CN(C)C(=O)c1cccc(-c2ccc(C3(NC(=O)C4(NC(=O)c5cnc6n5[C@](C)(Cc5ccc(C#N)cc5)C(=O)N6c5cc(Cl)cc(Cl)c5)CC4)CC3)nc2)c1` [Compound 56]: 0.67 nM.
The value for `C[C@@]1(Cc2ccc(C#N)cc2)C(=O)N(c2cc(Cl)c(F)c(Cl)c2)c2ncc(C(=O)NC3(C(=O)NC4(c5ncc(-c6cn[nH]c6)cn5)CC4)CC3)n21` [Compound 33] was 0.57 nM; that for `C[C@@]1(Cc2ccc(C#N)cc2)C(=O)N(c2cc(Cl)cc(Cl)c2)c2ncc(C(=O)NC3(C(=O)NC4(c5ccc(-c6ccc(NS(C)(=O)=O)cc6)cn5)CC4)CC3)n21` [Compound 133] was 1.5 nM.
For the compound `C[C@H](NC(=O)c1cnc2n1[C@](C)(Cc1ccc(C#N)cc1)C(=O)N2c1cc(Cl)c(F)c(Cl)c1)C(=O)NC1(c2ncc(-c3ccc(CO)nc3)cn2)CC1` [Compound 78], the IC50 came out at 1.2 nM. The IC50 values of the last two compounds are within 1.5-fold of each other.
The compound `C[C@@]1(Cc2ccc(C#N)cc2)C(=O)N(c2cc(Cl)c(F)c(Cl)c2)c2ncc(C(=O)NC3(C(=O)NC4(c5ncc(-c6ccc(O)cc6)cn5)CC4)CC3)n21` [Compound 34] yielded an IC50 of 1 nM.
Next, `C[C@H](NC(=O)c1cnc2n1[C@](C)(Cc1ccc(C#N)cc1)C(=O)N2c1cc(Cl)c(F)c(Cl)c1)C(=O)NC1(c2ccc(-c3ccc(CO)nc3)nc2)CC1` [Compound 90]: 0.28 nM; `C[C@@]1(Cc2ccc(C#N)cc2)C(=O)N(c2cc(Cl)c(F)c(Cl)c2)c2ncc(C(=O)NC3(C(=O)NC4(c5ccc(-c6ccc(S(C)(=O)=O)cc6)cn5)CC4)CC3)n21` [Compound 158]: 1.3 nM.
Next, `Cc1nn(C)cc1-c1ccc(C2(NC(=O)C3(NC(=O)c4cnc5n4[C@](C)(Cc4ccc(OC(F)(F)F)cc4)C(=O)N5c4cc(Cl)c(F)c(Cl)c4)CC3)CC2)cn1` [Compound 150]: 0.68 nM; `Cc1nn(C)c(C)c1-c1ccc(C2(NC(=O)C3(NC(=O)c4cnc5n4[C@](C)(Cc4ccc(C#N)cc4)C(=O)N5c4cc(Cl)c(F)c(Cl)c4)CC3)CC2)nc1` [Compound 101]: 1.1 nM.
As to `Cc1ccc(-c2ccc(C3(NC(=O)C4(NC(=O)c5cnc6n5[C@](C)(Cc5ccc(C#N)cc5)C(=O)N6c5cc(Cl)cc(Cl)c5)CC4)CC3)nc2)cn1` [Compound 62], the IC50 turned out to be 1.1 nM.
The value for `CC1(Cc2ccc(C#N)cc2)C(=O)N(c2cc(Cl)c(F)c(Cl)c2)c2ncc(C(=O)NC3(C(=O)NC4(c5ccc(-c6cnn(C7CC7)c6)cn5)CC4)CC3)n21` (centres unmarked) [Compound 38] was 1.7 nM.
Next, `C[C@@]1(Cc2ccc(OC(F)(F)F)cc2)C(=O)N(c2cc(Cl)c(F)c(Cl)c2)c2ncc(C(=O)NC3(C(=O)NC4(c5ccc(-c6ccc(N)nc6)cn5)CC4)CC3)n21` [Compound 20]: 1.5 nM; `C[C@@]1(Cc2ccc(C#N)cc2)C(=O)N(c2cc(Cl)cc(Cl)c2)c2ncc(C(=O)NC3(C(=O)NC4(c5ccc(-c6cccc(O)c6)cn5)CC4)CC3)n21` [Compound 142]: 1.7 nM; `C[C@@]1(Cc2ccc(C#N)cc2)C(=O)N(c2cc(Cl)cc(Cl)c2)c2ncc(C(=O)NC3(C(=O)NC4(c5ccc(-c6ccc(O)cc6)cn5)CC4)CC3)n21` [Compound 135]: 0.64 nM.
Next, `C[C@@]1(Cc2ccc(C#N)cc2)C(=O)N(c2cc(Cl)c(F)c(Cl)c2)c2ncc(C(=O)NC3(C(=O)NC4(c5ccc(-c6ccncc6)cn5)CC4)CC3)n21` [Compound 68]: 0.6 nM; `Cc1nn(C)cc1-c1ccc(C2(NC(=O)C3(NC(=O)c4cnc5n4[C@](C)(Cc4ccc(C#N)cc4)C(=O)N5c4cc(Cl)c(F)c(Cl)c4)CC3)CC2)nc1` [Compound 123]: 1.4 nM; `C[C@@]1(Cc2ccc(C#N)cc2)C(=O)N(c2cc(Cl)c(F)c(Cl)c2)c2ncc(C(=O)NC3(C(=O)NC4(c5ccc(-c6cccc(S(N)(=O)=O)c6)cn5)CC4)CC3)n21` [Compound 115]: 1.8 nM.
`Cn1cc(-c2ccc(C3(NC(=O)C4(NC(=O)c5cnc6n5[C@](C)(Cc5ccc(C#N)cc5)C(=O)N6c5cc(Cl)c(F)c(Cl)c5)CC4)CC3)nn2)cn1` [Compound 35]: the IC50 is 0.48 nM.
The value for `C[C@H](NC(=O)c1cnc2n1[C@](C)(Cc1ccc(C#N)cc1)C(=O)N2c1cc(Cl)c(F)c(Cl)c1)C(=O)NC1(c2ccc(-c3cnn(C)c3)cn2)CC1` [Compound 88] was 0.89 nM; that for `CC(O)C(NC(=O)c1cnc2n1C(C)(Cc1ccc(C#N)cc1)C(=O)N2c1cc(Cl)c(F)c(Cl)c1)C(=O)NC1(c2ccc(-c3cnn(C)c3)nc2)CC1` (centres unmarked) [Compound 152] was 1.1 nM.
The value for `Cc1ccc(-c2ccc(C(C)NC(=O)C(NC(=O)c3cnc4n3C(C)(Cc3ccc(C#N)cc3)C(=O)N4c3cc(Cl)c(F)c(Cl)c3)C(C)O)nc2)cn1` (centres unmarked) [Compound 30] was 0.61 nM.
Next, `C[C@@]1(Cc2ccc(C#N)cc2)C(=O)N(c2cc(Cl)c(F)c(Cl)c2)c2ncc(C(=O)NC3(C(=O)NC4(c5ncc(-c6ccc(CO)cc6)cn5)CC4)CC3)n21` [Compound 32]: 1.4 nM.
Turning to `Cc1n[nH]c(C)c1-c1ccc(C2(NC(=O)C3(NC(=O)c4cnc5n4[C@](C)(Cc4ccc(C#N)cc4)C(=O)N5c4cc(Cl)c(F)c(Cl)c4)CC3)CC2)nc1` [Compound 157], the half-maximal inhibitory concentration (IC50) worked out at 0.91 nM.
As to `Cc1cc(-c2ccc(C3(NC(=O)C4(NC(=O)c5cnc6n5[C@](C)(Cc5ccc(C#N)cc5)C(=O)N6c5cc(Cl)cc(Cl)c5)CC4)CC3)nc2)ccn1` [Compound 54], the IC50 came out at 0.53 nM.
The value for `C[C@@]1(Cc2ccc(C#N)cc2)C(=O)N(c2cc(Cl)cc(Cl)c2)c2ncc(C(=O)NC3(C(=O)NC4(c5ccc(-c6cccc(S(N)(=O)=O)c6)cn5)CC4)CC3)n21` [Compound 138] was 0.64 nM; that for `C[C@H](NC(=O)c1cnc2n1[C@](C)(Cc1ccc(C#N)cc1)C(=O)N2c1cc(Cl)c(F)c(Cl)c1)C(=O)NC1(c2ccc(-c3cn[nH]c3)cn2)CC1` [Compound 93] was 0.7 nM.
The value for `C[C@@]1(Cc2ccc(C#N)cc2)C(=O)N(c2cc(Cl)cc(Cl)c2)c2ncc(C(=O)NC3(C(=O)NC4(c5ccc(-c6ccc(Cl)nc6)cn5)CC4)CC3)n21` [Compound 61] was 1 nM; that for `C[C@@]1(Cc2ccc(C#N)cc2)C(=O)N(c2cc(Cl)cc(Cl)c2)c2ncc(C(=O)NC3(C(=O)NC4(c5ccc(-c6ccc(F)nc6)cn5)CC4)CC3)n21` [Compound 58] was 0.71 nM.

The record behind these values is patent US8575360B2, “Derivatives of 6,7-dihydro-5H-imidazo[1,2-a]imidazole-3-carboxylic acid amides” (Boehringer Ingelheim International GmbH, priority 2009, dated 2013).
